This passage reports IC50 results from ChEMBL document CHEMBL4382290, “Tetrahydroisoquinoline CXCR4 Antagonists Adopt a Hybrid Binding Mode within the Peptide Subpocket of the CXCR4 Receptor” (ACS Med Chem Lett, 2019).

pIC50: −log10 of the molar value. Some results are limits rather than exact numbers.

For this test, the system named is Human immunodeficiency virus 1. Description: Antiviral activity against CXCR4 tropic HIV1 3B infected in human MAGI-CCR5/CXCR4 cells measured after 2 to 6 days by beta-galactosidase reporter gene assay. In kind it is functional, organism-based. Conditions: Human immunodeficiency virus 1, 3B.
`NCCCCN(C[C@H]1CCc2ccccc2N1)[C@H]1CCCc2cccnc21` showed a pIC50 of 6.60.
Consider `NCCCN(C[C@H]1Cc2ccccc2CN1)[C@H]1CCCc2cccnc21`, for which the pIC50 is 6.42.
Molecule `NCCCCN(C[C@@H]1NCCc2ccccc21)[C@H]1CCCc2cccnc21` had a pIC50 of 4.52.
As to `NCCCCN(C[C@H]1CCCCN1)[C@H]1CCCc2cccnc21`, the pIC50 is 5.95.
Turning to `NCCCCN(C[C@@H]1Cc2ccccc2CN1)[C@H]1CCCc2cccnc21`, the pIC50 was 5.85.
The molecule `NCCCCN(C[C@@H]1CCc2ccccc2N1)[C@H]1CCCc2cccnc21` showed a pIC50 of 4.52.
Take `Cc1ccc(-c2ccc3c(c2)C=C(C(=O)Nc2ccc(C[N+](C)(C)C4CCOCC4)cc2)CCC3)cc1`: the pIC50 was less than 5.00.
In turn, `NCCCCCN(C[C@H]1Cc2ccccc2CN1)[C@H]1CCCc2cccnc21` showed a pIC50 of 6.77.
For `NCCCCN(C[C@H]1Cc2ccccc2CN1)[C@H]1CCCc2ccccc21` the value was 5.82; for `NCCN(C[C@H]1Cc2ccccc2CN1)[C@H]1CCCc2cccnc21`, 5.21.
`NCCCCN(C[C@H]1Cc2ccccc2CN1)[C@H]1CCCc2cccnc21`: the pIC50 was 8.30.
The molecule `NCCCCN(C[C@H]1NCCc2ccccc21)[C@H]1CCCc2cccnc21` showed a pIC50 of 6.35.
